40 molecules from US9023809B2, “Phenylalanine dipeptide derivatives, compositions and use thereof” (The Key Laboratory of Chemistry For Natural Products of …, priority 2008, dated 2015) can be followed below.

Values after ≈ are worked out from the molar mass of the structure shown. *1 amine or outer side, *2 acyl side, *3 side chain or, on linkers, in order; H or OH if unused. Where a SMILES comes first, the peptide text is derived from it. [ ]: non-standard residue; d: D form. The star is where a group is joined. Tyr(3-NO2) = N[C@@H](Cc1ccc(O)c([N+](=O)[O-])c1)C(=O)O; Phe(4-NO2) = N[C@@H](Cc1ccc([N+](=O)[O-])cc1)C(=O)O; Phe(4-NH2) = Nc1ccc(C[C@H](N)C(=O)O)cc1; Suc = O=C(CCC(=O)[*:2])[*:1]; 4Abz = Nc1ccc(C(=O)O)cc1; Propionyl = CCC(=O)*; Bz = O=C(c1ccccc1)*; ClAc = O=C(CCl)*

One data set deals with 2.2.15 cells. Kind of data set: Cytotoxicity (TC50, median toxic concentration) in 2.2.15 cells. The format is cell-based. As for the experimental part:
Cell control wells were simultaneously set up. […] IC50 and SI were calculated, respectively.

For `COC(=O)[C@H](Cc1ccccc1)NC(=O)[C@H](Cc1ccccc1)NC(=O)c1ccc(O)cc1`, the melting point is 151 to 153 °C.

`COC(=O)[C@H](Cc1ccccc1)NC(=O)[C@H](Cc1ccc(O)cc1)NC(=O)c1ccc([N+](=O)[O-])cc1` yielded a melting point of 212 to 214 °C.

Regarding `COC(=O)[C@H](Cc1ccccc1)NC(=O)[C@H](Cc1ccc(O)cc1)NC(=O)c1ccc(C)cc1`, the melting point was in the range of 190 to 192.5 °C.

`O=C(N[C@@H](Cc1ccc(O)cc1)C(=O)N[C@H](CO)Cc1ccccc1)c1cccc([N+](=O)[O-])c1` displayed a melting point of 225.5 to 227 °C.

`COC(=O)[C@H](Cc1ccccc1)NC(=O)[C@H](Cc1ccccc1)NCc1ccncc1` came in with a melting point of 174 to 175 °C.

`COC(=O)[C@H](Cc1ccc([N+](=O)[O-])cc1)NC(=O)[C@H](Cc1ccccc1)NCc1ccncc1`: the melting point was 224.5 to 225.5 °C.

In turn, `COC(=O)[C@H](Cc1ccccc1)NC(=O)[C@H](Cc1ccc(O)cc1)NCc1ccncc1` displayed a melting point of 206.5 to 209 °C.

Molecule `COC(=O)[C@H](Cc1ccc(NC(C)=O)cc1)NC(=O)[C@H](Cc1ccccc1)NC(=O)c1ccc(C)cc1` showed a melting point of 221.5 to 222 °C.

`COC(=O)[C@H](Cc1ccccc1)NC(=O)[C@H](Cc1ccccc1)NC(=O)c1ccc(NC(C)=O)cc1` (Ac-[4Abz]-Phe-Phe-OMe) had a melting point of 208 to 209.5 °C.

On to `COC(=O)[C@H](Cc1ccccc1)NC(=O)[C@H](Cc1ccc(O)cc1)NC(=O)c1ccc(NC(C)=O)cc1` (Ac-[4Abz]-Tyr-Phe-OMe), for which the melting point lay within 225 to 226 °C.

Take `COC(=O)[C@H](Cc1ccccc1)NC(=O)[C@H](Cc1ccc(O)cc1)NC(=O)c1ccccc1` (Bz-Tyr-Phe-OMe): the melting point was in the range of 200 to 202 °C.

In turn, `COC(=O)[C@H](Cc1ccccc1)NC(=O)[C@H](Cc1ccc(O)c([N+](=O)[O-])c1)NC(=O)c1ccccc1` (Bz-[Tyr(3-NO2)]-Phe-OMe) registered a melting point of 201 to 202.5 °C.

`COC(=O)[C@H](Cc1ccccc1)NC(=O)[C@H](Cc1ccccc1)NC(=O)c1ccc(NC(=O)CCl)cc1` ({ClAc-4Abz}-Phe-Phe-OMe): the melting point is 222.5 to 224.5 °C.

`COC(=O)[C@H](Cc1ccccc1)NC(=O)[C@H](Cc1ccccc1)NC(=O)c1ccccc1` [Example 01, methyl N-(N-benzoyl-L-phenylalanyl)-L-phenylalaninate] (Bz-Phe-Phe-OMe): in the data set with 2.2.15 cells, the TC50 came to 1101.11 µg/mL (≈ 2560 µM).

In the data set with 2.2.15 cells, `O=C(N[C@@H](Cc1ccccc1)C(=O)N[C@H](CO)Cc1ccccc1)c1ccccc1` [Example 02, N-(N-benzoyl-L-phenylalanyl)-L-phenylalaninol] registered a TC50 of 231.12 µg/mL (≈ 574 µM).

As to `O=C(N[C@@H](Cc1ccc([N+](=O)[O-])cc1)C(=O)N[C@H](CO)Cc1ccccc1)c1ccccc1` [Example 06, N-(N-benzoyl-4-nitro-L-phenylalanyl)-L-phenylalaninol], the melting point fell in the range of 196 to 199 °C. This molecule also displayed a TC50 with 2.2.15 cells of 53.42 µg/mL (≈ 119 µM).

As for `O=C(N[C@@H](Cc1ccccc1)C(=O)N[C@H](CO)Cc1ccccc1)c1ccccc1Cl` [Example 08, N-(N-2-chloro-benzoyl-L-phenylalanyl)-L-phenylalaninol], the TC50 in the data set with 2.2.15 cells is 166.70 µg/mL (≈ 382 µM).

Regarding `COC(=O)[C@H](Cc1ccccc1)NC(=O)[C@H](Cc1ccccc1)NC(=O)c1cccc(C)c1` [Example 09, methyl N-(N-3-methyl-benzoyl-L-phenylalanyl)-L-phenylalaninate], the melting point was in the range of 190 to 192 °C. In addition, the TC50 in the data set on 2.2.15 cells is 240.38 µg/mL (≈ 541 µM).

The molecule `COC(=O)[C@H](Cc1ccccc1)NC(=O)[C@H](Cc1ccccc1)NC(=O)c1ccccc1Cl` [Example 10, methyl N-(N-2-chloro-benzoyl-L-phenylalanyl)-L-phenylalaninate] displayed a melting point of 152.5 to 153.5 °C. The molecule further showed a TC50 in the data set on 2.2.15 cells of 288.68 µg/mL (≈ 621 µM).

`COC(=O)[C@H](Cc1ccc(O)cc1)NC(=O)[C@H](Cc1ccccc1)NC(=O)c1ccccc1Cl` [Example 11, methyl N-(N-2-chloro-benzoyl-L-phenylalanyl)-L-tyrosinate] registered a melting point of 164.5 to 167 °C. The molecule further yielded a TC50 with 2.2.15 cells of 500.00 µg/mL (≈ 1040 µM).

As to `COC(=O)[C@H](Cc1ccccc1)NC(=O)[C@H](Cc1ccc([N+](=O)[O-])cc1)NC(=O)c1ccccc1` [Example 12, methyl N-(N-benzoyl-4-nitro-L-phenylalanyl)-L-phenylalaninate] (Bz-[Phe(4-NO2)]-Phe-OMe), the melting point fell in the range of 202 to 204.5 °C. Further, the TC50 with 2.2.15 cells turned out to be 388.03 µg/mL (≈ 816 µM).

`Cc1ccc(C(=O)N[C@@H](Cc2ccccc2)C(=O)N[C@H](CO)Cc2ccccc2)cc1` [Example 13, N-(N-4-methyl-benzoyl-L-phenylalanyl)-L-phenylalaninol] yielded a melting point of 200 to 202 °C. The molecule further gave a TC50 in the data set on 2.2.15 cells of 776.06 µg/mL (≈ 1860 µM).

Molecule `COC(=O)[C@H](Cc1ccc([N+](=O)[O-])cc1)NC(=O)[C@H](Cc1ccc([N+](=O)[O-])cc1)NC(=O)c1ccccc1` [Example 15, methyl N-(N-benzoyl-4-nitro-L-phenylalanyl)-4-nitro-L-phenylalaninate] (Bz-[Phe(4-NO2)]-[Phe(4-NO2)]-OMe) registered a melting point of 220 to 221.5 °C. For the same molecule, the TC50 with 2.2.15 cells came out at 45.69 µg/mL (≈ 87.8 µM).

As for `O=C(N[C@@H](Cc1ccccc1)C(=O)N[C@H](CO)Cc1ccc([N+](=O)[O-])cc1)c1ccccc1` [Example 16, N-(N-benzoyl-L-phenylalanyl)-4-nitro-L-phenylalaninol], the melting point is 192 to 195 °C. This molecule had a TC50 in the data set on 2.2.15 cells of 52.34 µg/mL (≈ 117 µM).

Molecule `COC(=O)[C@H](Cc1ccc(O)cc1)NC(=O)[C@H](Cc1ccccc1)NC(=O)c1ccc(C)cc1` [Example 17, methyl N-(N-^4-methyl-benzoyl-L-phenylalanyl)-L-tyrosinate] came in with a TC50 with 2.2.15 cells of 465.23 µg/mL (≈ 1010 µM).

The molecule `COC(=O)[C@H](Cc1ccc(O)cc1)NC(=O)[C@H](Cc1ccc([N+](=O)[O-])cc1)NC(=O)c1ccc(C)cc1` [Example 18, methyl N-(N-4-methyl-benzoyl-4-nitro-L-phenylalanyl)-L-tyrosinate] showed a melting point of 213 to 215 °C. In the data set with 2.2.15 cells, this molecule showed a TC50 of 45.28 µg/mL (≈ 89.6 µM).

Regarding `O=C(N[C@@H](Cc1ccc(O)cc1)C(=O)N[C@H](CO)Cc1ccccc1)c1ccccc1` [Example 21, N-(N-benzoyl-L-tyrosyl)-L-phenylalaninol], the melting point fell in the range of 216 to 217.5 °C. This molecule had a TC50 in the data set with 2.2.15 cells of 28.74 µg/mL (≈ 68.7 µM).

`Cc1ccc(C(=O)N[C@@H](Cc2ccc(O)cc2)C(=O)N[C@H](CO)Cc2ccccc2)cc1` [Example 26, N-(N-4-methyl-benzoyl-L-tyrosyl)-L-phenylalaninol]: the melting point lay within 193 to 195 °C. The molecule further displayed a TC50 in the data set with 2.2.15 cells of 472.10 µg/mL (≈ 1090 µM).

On to `COC(=O)[C@H](Cc1ccc(O)cc1)NC(=O)[C@H](Cc1ccccc1)NCc1ccncc1` [Example 46, methyl N-(N-isonicotinyl-L-phenylalanyl)-L-tyrosinate], for which the melting point fell in the range of 216 to 217 °C.

On to `CC(=O)Nc1ccc(C[C@H](NC(=O)c2ccccc2C(=O)[O-])C(=O)N[C@H](CO)Cc2ccccc2)cc1.[Na+]` [Example 53, N-[N-(2-carboxyl-benzoyl)-4-acetamido-L-phenylalanyl]-L-phenylalaninol sodium salt], for which, in the data set on 2.2.15 cells, the TC50 was determined as 354.18 µg/mL.

As to `O=C(O)CCC(=O)OC[C@H](Cc1ccccc1)NC(=O)[C@H](Cc1ccccc1)NC(=O)c1ccccc1` [Example 56, N-(N-benzoyl-L-phenylalanyl)-O-(3-carboxyl-propionyl)-L-phenylalaninol], in the data set on 2.2.15 cells, the TC50 was found to be 333.33 µg/mL (≈ 663 µM).

The molecule `CCC(=O)Nc1ccc(C[C@H](NC(=O)c2ccc(Cl)cc2)C(=O)N[C@@H](Cc2ccccc2)C(=O)OC)cc1` [Example 70, methyl N-[N-(4-chloro-benzoyl)-4-propionamido-L-phenylalanyl]-L-phenylalaninate] had a TC50 with 2.2.15 cells of 17.81 µg/mL (≈ 33.2 µM).

`CN(C)CC(=O)Nc1ccc(C(=O)N[C@@H](Cc2ccccc2)C(=O)N[C@H](CO)Cc2ccccc2)cc1` [Example 76, N-[N-4-(dimethylaino-acetamido)-benzoyl-L-phenylalanyl]-L-phenylalaninol] had a TC50 in the data set on 2.2.15 cells of 37.04 µg/mL (≈ 73.7 µM).

Take `COC(=O)[C@H](Cc1ccccc1)NC(=O)[C@H](Cc1ccccc1)NC(=O)c1ccc(NC(=O)CN(C)C)cc1` [Example 81, methyl N-[N-4-(dimethylamino-acetamido)-benzoyl-L-phenylalanyl]-L-phenylalaninate]: the TC50 in the data set on 2.2.15 cells was 58.64 µg/mL (≈ 111 µM).

For `COC(=O)[C@H](Cc1ccccc1)NC(=O)[C@H](Cc1ccccc1)NC(=O)c1ccc(NC(=O)CN2CCCC2)cc1` [Example 82, methyl N-{N-[4-(1-pyrrolidyl)acetamido-benzoyl]-L-phenylalanyl}-L-phenylalaninate], the TC50 with 2.2.15 cells turned out to be 59.19 µg/mL (≈ 106 µM).

As for `O=C([O-])CCC(=O)Nc1ccc(C(=O)N[C@@H](Cc2ccccc2)C(=O)N[C@@H](Cc2ccccc2)C(=O)[O-])cc1.[Na+].[Na+]` [Example 92, N-[N-4-(3-carboxyl-propionamido)-benzoyl-L-phenylalanyl]-L-phenylalanine sodium salt] ({Suc-4Abz}-Phe-Phe-OH), in the data set with 2.2.15 cells, the TC50 came out at 379.36 µg/mL.

Turning to `O=C(N[C@@H](Cc1ccc(O)cc1)C(=O)N[C@@H](Cc1ccccc1)C(=O)O)c1ccccc1` [Example 93, N-(N-benzoyl-L-tyrosyl)-L-phenylalanine] (Bz-Tyr-Phe-OH), in the data set on 2.2.15 cells, the TC50 turned out to be 577.35 µg/mL (≈ 1330 µM).

For the molecule `CCC(=O)Nc1ccc(C[C@H](NC(=O)[C@H](Cc2ccccc2)NC(=O)c2ccccc2)C(=O)O)cc1` [Example 94, N-(N-benzoyl-L-phenylalanyl)-4-propionamido-L-phenylalanine] (Bz-Phe-[Phe(4-NH2)](Propionyl)-OH), the TC50 in the data set on 2.2.15 cells was 561.21 µg/mL (≈ 1150 µM).

In the data set with 2.2.15 cells, `CC(=O)Nc1ccc(C[C@H](NC(=O)[C@H](Cc2ccc(O)cc2)NC(=O)c2ccccc2)C(=O)[O-])cc1.[Na+]` [Example 95, N-(N-benzoyl-L-tyrosyl)-4-acetamido-L-phenylalanine sodium salt] (Bz-Tyr-[Phe(4-NH2)](Ac)-OH) had a TC50 of 79.46 µg/mL.

For `CC(=O)Nc1ccc(C[C@H](NC(=O)[C@H](Cc2ccc(O)cc2)NC(=O)c2ccc(C)cc2)C(=O)O)cc1` [Example 96, N-(N-4-methyl-benzoyl-L-tyrosyl)-4-acetamido-L-phenylalanine], the TC50 in the data set on 2.2.15 cells came out at 199.67 µg/mL (≈ 397 µM).
